# Experimental data: patent US8598132B2, “Glycosylated indolocarbazoles, method for obtaining same and uses thereof” (Universidad de Oviedo, priority 2008, dated 2013)
# System: HT29 (colon)
# Experiment: SRB anti-tumour (growth inhibition) assay, HT29
# Assay type: cell-based
# Conditions: Homo sapiens, HT-29, 48 h exposure, read-out: GI50 (concentration inhibiting 50% of cell growth)
# Experimental: The compounds generated were tested against a series of cell lines from tumours. It quantitatively determined the cell growth and the viability, using a colorimetric assay type, using the reaction with sulforhodamine B (SRB), according to the technique described by Faircloth et al. (Journal of Tissue and Culture Methods 1988, 11, 201-205).
# 96-well microtitre plates are inoculated with cells (5×10^3 cells per well) in aliquots of 195 μl of medium, incubating them during 18 h, in a medium without added compound, to allow the cells to adhere to the surface. Next, the compounds to be tested are added, in samples of 5 μl, at a range of concentrations of 10 to 10^−8 μg/ml, dissolved in DMSO/EtOH (0.2% in PS buffer). After 48 h exposure, the anti-tumour effect is measured using the Sulforhodamine B (SRB) technique: the cells are fixed adding 50 μl of cold […] (50%) (w/v) and it is incubated for 60 min. at 4° C. The plates are washed with deionized water and dried. 100 μl of SRB solution (0.4% w/v in 1% acetic acid) to each well and it is incubated during 10 min. at ambient temperature. The non-bound SRB is eliminated, washing with 1% acetic acid. The plates are air dried and the bound colorant is dissolved with Tris buffer. The optical densities are read in an automatic plate spectrophotometer reader at a wavelength of 490 nm.
# For the compounds of formula (III), (IV), (V), (VI), (VII), (VIII), (IX) and the compounds of formula (XII), (XIII), (XIV), (XV), (XVI) and (XVIII).
row,SMILES,GI50
1,"C[C@@H]1O[C@@H](n2c3ccccc3c3c4c(c5c6ccccc6[nH]c5c32)C(=O)NC4=O)[C@H](O)[C@H](O)[C@H]1O [formula (III), N^13-1′-β-L-rhamnosylarcyriaflavin]",2.42 µM
2,"C[C@@H]1O[C@@H](n2c3ccccc3c3c4c(c5c6ccccc6[nH]c5c32)C(=O)NC4=O)C[C@H](O)[C@H]1O [formula (IV), N^13-1′-β-L-olivosylarcyriaflavin]",8.79 µM
3,"C[C@]12O[C@H](C[C@@H](O)[C@H]1O)n1c3ccccc3c3c4c(c5c6ccccc6n2c5c31)C(=O)NC4=O [formula (IX), N^12-5′(S)-N^13-1′-(R)-L-digitoxosylarcyriaflavin]",8.16 µM
4,"C[C@@H]1O[C@@H](n2c3ccccc3c3c4c(c5c6ccccc6[nH]c5c32)C(=O)NC4=O)C[C@@H](O)[C@H]1O [formula (V), N^13-1′-β-L-digitoxosylarcyriaflavin]",6.39 µM
5,"C[C@H]1O[C@@H](n2c3ccccc3c3c4c(c5c6ccccc6[nH]c5c32)C(=O)NC4=O)C[C@@H](O)[C@@H]1O [formula (VI), N^13-1′-β-D-olivosylarcyriaflavin]",2.16 µM
6,"C[C@]12O[C@H]([C@H](O)[C@H](O)[C@H]1O)n1c3ccccc3c3c4c(c5c6ccccc6n2c5c31)C(=O)NC4=O [formula (VII), N^12-5′(S)-N^13-1′-(R)-L-rhamnosylarcyriaflavin]",2.45 µM
7,"C[C@]12O[C@H](C[C@H](O)[C@H]1O)n1c3ccccc3c3c4c(c5c6ccccc6n2c5c31)C(=O)NC4=O [formula (VIII), N^12-5′(S)-N^13-1′-(R)-L-olivosylarcyriaflavin]",11.2 µM
8,"C[C@@H]1O[C@@H](n2c3ccccc3c3c4c(c5c6ccccc6[nH]c5c32)CNC4=O)[C@H](O)[C@H](O)[C@H]1O [formula (XII), N^13-1′-β-L-rhamnosyl-k252c]",2.1 µM
9,"C[C@@H]1O[C@@H](n2c3ccccc3c3c4c(c5c6ccccc6[nH]c5c32)CNC4=O)C[C@H](O)[C@H]1O [formula (XIII), N^13-1′-β-L-olivosyl-k252c]",1.52 µM
10,"C[C@@H]1O[C@@H](n2c3ccccc3c3c4c(c5c6ccccc6[nH]c5c32)CNC4=O)C[C@@H](O)[C@H]1O [formula (XIV), N^13-1′-β-L-digitoxosyl-k252c]",3.4 µM
11,"C[C@H]1O[C@@H](n2c3ccccc3c3c4c(c5c6ccccc6[nH]c5c32)CNC4=O)C[C@@H](O)[C@@H]1O [formula (XV), N^13-1′-β-D-olivosyl-k252c]",3.85 µM
12,"C[C@]12O[C@H]([C@H](O)[C@H](O)[C@H]1O)n1c3ccccc3c3c4c(c5c6ccccc6n2c5c31)CNC4=O [formula (XVI), N^12-5′(S)-N^13-1′-(R)-L-rhamnosyl-k252c]",0.87 µM
13,"C[C@]12O[C@H](C[C@H](O)[C@H]1O)n1c3ccccc3c3c4c(c5c6ccccc6n2c5c31)CNC4=O [formula (XVII), N^12-5′(S)-N^13-1′-(R)-L-olivosyl-k252c]",1.21 µM
14,"C[C@]12O[C@H](C[C@@H](O)[C@H]1O)n1c3ccccc3c3c4c(c5c6ccccc6n2c5c31)CNC4=O [formula (XVIII), N^12-5′(S)-N^13-1′-(R)-L-digitoxosyl-k252c]",1.52 µM
